According to article PMC9486541, “Design, synthesis and cytotoxic evaluation of novel betulonic acid-diazine derivatives as potential antitumor agents” (Frontiers in Chemistry, 2022):

Key:
Bel-7402 = test: MTT assay, Bel-7402 cells; type: cell-based, human; conditions: Homo sapiens, Bel-7402, 72 h incubation, read-out: Half maximal inhibitory concentration (IC50) values, Bel-7402
Text: (§1) The human hepatocellular carcinoma cell line (HepG2), human hepatocellular carcinoma cell line (Bel-7402), human cervical cancer cell line (Hela), human breast adenocarcinoma cell line (MCF-7) and Madin-Darby canine kidney cell line (MDCK) were obtained from the Chinese Academy of Medical Sciences and Peking Union Medical College. Cultures were maintained as monolayer in RPMI-1640/DMEM supplemented with 10% (v/v) fetal bovine serum (FBS) and 1% (v/v) penicillin/streptomycin (Thermo Technologies, New York, NY, United States) under a humidified atmosphere containing 5% CO2 at 37°C. The BoA derivatives and positive control drugs (BoA and DDP) under study were dissolved in DMSO (Sigma, St. Louis, MO, United States) and added at required concentrations to the cell culture. Cells incubated without the preparations served as the control.
(§2) The antitumor activity was assessed by MTT assay, as previously reported ([Fang et al., 2018]). Each tested compound and positive control drugs were dissolved in DMSO and diluted with the medium to the test concentrations, and the final concentration of DMSO in the culture medium was controlled at less than 0.5% (v/v). Briefly, cells were cultured at 37°C and dispersed in replicates in 96-well plates with HepG2, Bel-7402, HeLa, MCF-7 and MDCK for 24 h. Fresh medium along with compounds (BoAA-BoAE, BoA2A-BoA2G, BoA3A-BoA3G, BoA4A-BoA4G) at different concentrations was then added to individual wells and incubated for 72 h, with BoA and DDP as the positive control. Experiments on FXR expression were separated into three groups: Control (PBS), BoA2C (8 μM), and BoA2C (8 μM) + DY268 (10 μM) ([Giordano et al., 2016]), with three repeating wells in each. In separate wells, BoA2C and DY268 were introduced and cultured for 72 h. After 72 h, the cell was incubated with MTT solution (0.5 mg/ml) for an additional 4 h at 37°C. The produced formazan crystals were solubilized with DMSO, and the optical density of solution was measured at 570 nm using a plate reader (BIORAD 550 spectrophotometer, Bio-rad Life Science Development Ltd., Beijing, China). Wells without drugs were used to be blanks. The IC50 values were defined as the concentration of compounds that produced a 50% proliferation inhibition of surviving cells and calculated using the Graph Pad Prism 5. The inhibitory rate was calculated in the following Equation 1, where OD is the optical density: % inhibition=[1−(OD Sample group−OD Blank group)/(OD Control group−OD Blank group)]×100% (1)

Hela = test: MTT assay, Hela cells; type: cell-based, human; conditions: Homo sapiens, HeLa, 72 h incubation, read-out: Half maximal inhibitory concentration (IC50) values, Hela
Text: as §1, §2

HepG2 = test: MTT assay, HepG2 cells; type: cell-based, human; conditions: Homo sapiens, HepG2, 72 h incubation, read-out: Half maximal inhibitory concentration (IC50) values, HepG2
Text: as §1, §2

MDCK = test: MTT assay, MDCK normal cell line; type: cell-based, canine; conditions: Canis lupus familiaris, MDCK, 72 h incubation, normal cell line, read-out: Half maximal inhibitory concentration (IC50) values, MDCK
Text: as §1, §2

MCF-7 = test: MTT assay, MCF-7 cells; type: cell-based, human; conditions: Homo sapiens, MCF7, 72 h incubation, read-out: Half maximal inhibitory concentration (IC50) values, MCF-7
Text: as §1, §2

LNCaP cells = test system: LNCaP cells; set-up: method as in list in b5; conditions: Figure 1, representative BoA derivatives; ref list in b5; cited from earlier work
G-361 cells = test system: G-361 cells; set-up: method as in list in b5; conditions: Figure 1, representative BoA derivatives; ref list in b5; cited from earlier work
A375 cells = test system: A375 cells; set-up: method as in list in b5; conditions: Figure 1, representative BoA derivatives; ref list in b5; cited from earlier work
Hela cells = test system: Hela cells; set-up: method as in list in b5; conditions: Figure 1, representative BoA derivatives; ref list in b5; cited from earlier work
HCT-116 cells = test system: HCT-116 cells; set-up: method as in list in b5; conditions: Figure 1, representative BoA derivatives; ref list in b5; cited from earlier work
DLD-1 cells = test system: DLD-1 cells; set-up: method as in list in b5; conditions: Figure 1, representative BoA derivatives; ref list in b5; cited from earlier work
SW872 = test system: SW872; set-up: method as in list in b5; conditions: Figure 1, representative BoA derivatives; ref list in b5; cited from earlier work
[1] = test system: MCF-7 breast cancer cells; test: MTT cell proliferation with FXR antagonist DY268; type: cell-based, human; conditions: MCF-7, BoA2C (8 μM) + DY268 (10 μM), 24, 48 and 72 h
Experimental: as §2, with “In separate wells, BoA2C and DY268 were introduced and cultured for 72 h.” left out, “The inhibitory rate was calculated in the following Equation 1, where OD is the optical density: % inhibition=[1−(OD Sample group−OD Blank group)/(OD Control group−OD Blank group)]×100% (1)” left out

[2] = test system: LNCaP prostate cancer cells; set-up: method as in Saxena et al., 2006; conditions: 100 μM; ref Saxena et al., 2006; cited from earlier work
[3] = test system: normally proliferating fibroblast cells; set-up: method as in Saxena et al., 2006; conditions: ref Saxena et al., 2006; cited from earlier work

| Structure (SMILES) | IC50 (Bel-7402) | melting point | IC50 (Hela) | IC50 (HepG2) | IC50 (MDCK) | IC50 (MCF-7) | further results |
| --- | --- | --- | --- | --- | --- | --- | --- |
| C=C(C)[C@@H]1CC[C@]2(C(=O)OCCCCOC(=O)c3cnccn3)CC[C@]3(C)[C@H](CC[C@@H]4[C@@]5(C)CCC(=O)C(C)(C)[C@@H]5CC[C@]43C)[C@@H]12 [BoA4A, (Pyrazin-2-acyloxy)-butyl-3-oxolup-20(29)-en-28-oate] | 9.39 ± 0.73 µM | 69 to 71 °C | 13.82 ± 0.12 µM | 12.9 ± 4 µM | 25.3 ± 4.14 µM | 9.13 ± 0.4 µM |  |
| C=C(C)[C@@H]1CC[C@]2(C(=O)OCCCCOC(=O)c3nccnc3C)CC[C@]3(C)[C@H](CC[C@@H]4[C@@]5(C)CCC(=O)C(C)(C)[C@@H]5CC[C@]43C)[C@@H]12 [BoA4B, (3-Methylpyrazin-2-acyloxy)-butyl-3-oxolup-20(29)-en-28-oate] | 3.92 ± 1.1 µM | 54 to 55 °C | 11.5 ± 0.93 µM | 21.8 ± 2.46 µM | > 30 µM | > 30 µM |  |
| C=C(C)[C@@H]1CC[C@]2(C(=O)OCCCCOC(=O)c3nc(C)c(C)nc3C)CC[C@]3(C)[C@H](CC[C@@H]4[C@@]5(C)CCC(=O)C(C)(C)[C@@H]5CC[C@]43C)[C@@H]12 [BoA4E, (3,5,6-Trimethylpyrazin-2-acyloxy)-butyl-3-oxolup-20(29)-en-28-oate] | > 30 µM | 124 to 126 °C | > 30 µM | > 30 µM | > 30 µM | > 30 µM |  |
| C=C(C)[C@@H]1CC[C@]2(C(=O)OCc3nccnc3C)CC[C@]3(C)[C@H](CC[C@@H]4[C@@]5(C)CCC(=O)C(C)(C)[C@@H]5CC[C@]43C)[C@@H]12 [BoAB, (3-Methylpyrazin-2-yl)-methyl-3-oxolup-20(29)-en-28-oate] | 7.73 ± 1.92 µM | 80 to 82 °C | 11.8 ± 0.58 µM | 11.1 ± 0.27 µM | > 30 µM | 10 ± 0.26 µM |  |
| C=C(C)[C@@H]1CC[C@]2(C(=O)OCc3cnc(C)cn3)CC[C@]3(C)[C@H](CC[C@@H]4[C@@]5(C)CCC(=O)C(C)(C)[C@@H]5CC[C@]43C)[C@@H]12 [BoAC, (5-Methylpyrazin-2-yl)-methyl-3-oxolup-20(29)-en-28-oate] | 8.24 ± 2.43 µM | 125 to 127 °C | 11.9 ± 1.05 µM | 8.95 ± 4.76 µM | > 30 µM | 8.94 ± 1.3 µM |  |
| C=C(C)[C@@H]1CC[C@]2(C(=O)OCc3cncc(C)n3)CC[C@]3(C)[C@H](CC[C@@H]4[C@@]5(C)CCC(=O)C(C)(C)[C@@H]5CC[C@]43C)[C@@H]12 [BoAD, (6-Methylpyrazin-2-yl)-methyl-3-oxolup-20(29)-en-28-oate] | 7.51 ± 1.4 µM | 119 to 121 °C | 10.7 ± 0.32 µM | 5.17 ± 1.33 µM | > 30 µM | 8.24 ± 0.87 µM |  |
| C=C(C)C1CC[C@]2(C(=O)NCCCCC(NC(=O)OC(C)(C)C)C(=O)O)CC[C@]3(C)[C@H](CC[C@@H]4[C@@]5(C)CCC(=O)C(C)(C)[C@@H]5CC[C@]43C)[C@@H]12 (stereo partly shown) [Compound 1] |  |  |  |  |  |  | IC50 (LNCaP cells): 10 µM |
| C=C(C)C1CCC2(C(=O)OC3OC(COC(C)=O)C(OC(C)=O)C(OC(C)=O)C3OC(C)=O)CCC3(C)C(CCC4C5(C)CCC(O)C(C)(C)C5CCC43C)C12 (stereo not shown) [Compound 2] |  |  |  |  |  |  | IC50 (G-361 cells): 3.4 µM |
| C=C(C)[C@@H]1CC[C@]2(C(=O)Nc3cncc4ccccc34)CC[C@]3(C)C(CCC4[C@@]5(C)CC[C@H](OC(C)=O)C(C)(C)C5CC[C@]43C)C12 (stereo partly shown) [Compound 3] |  |  |  |  |  |  | IC50 (A375 cells): 1.48 µM |
| C=C(C)[C@@H]1CC[C@]2(C(=O)OCCN3CCNCC3)CC[C@]3(C)C(CCC4[C@@]5(C)CC[C@H](O)C(C)(C)C5CC[C@]43C)C12 (stereo partly shown) [Compound 4] |  |  |  |  |  |  | IC50 (Hela cells): 2.05 µM |
| C=C(C)C1CCC2(C(=O)O)CCC3(C)C(CCC4C5(C)CC(=Cc6ccc([N+](=O)[O-])cc6)C(O)C(C)(C)C5CCC43C)C12 (stereo not shown) [Compound 5] |  |  |  |  |  |  | IC50 (HCT-116 cells): 1.36 µM |
| C=C(C)C1CCC2(COC(C)=O)CCC3(C)C(CCC4C5(C)CCC(OC6OC(CO)C(O)C(O)C6O)C(C)(C)C5CCC43C)C12 (stereo not shown) [Compound 6] |  |  |  |  |  |  | IC50 (DLD-1 cells): 4.45 µM |
| C=C(C)[C@@H]1CC[C@]2(C(=O)OCC(N)(CO)CO)CC[C@]3(C)[C@H](CC[C@@H]4[C@@]5(C)CC[C@H](OC(C)=O)C(C)(C)[C@@H]5CC[C@]43C)[C@@H]12 [Compound 7] |  |  |  |  |  |  | IC50 (SW872): 1.8 µM |
| COc1cccc(Cn2cc(C(=O)Nc3ccc(C)c(S(=O)(=O)N4CCOCC4)c3)c(-c3ccc(C)cc3)n2)c1 [DY268] |  |  |  |  |  |  | effect of DY268 on BoA2C antiproliferative activity [1]: reversed BoA2C inhibitory impact on the growth of MCF-7 breast cancer cells |
| C=C(C)C1CC[C@]2(C(=O)NCCCCC(NC(=O)OC(C)(C)C)C(=O)O)CC[C@]3(C)[C@H](CC[C@@H]4[C@@]5(C)CCC(=O)C(C)(C)[C@@H]5CC[C@]43C)[C@@H]12 (stereo partly shown) [boc-lysinated-betulonic acid] |  |  |  |  |  |  | inhibition of LNCaP prostate cancer cells [2]: 95.7%; effect on normally proliferating fibroblast cells [3]: little effect on normally proliferating fibroblast cells |
